Experimental data: ChEMBL document CHEMBL1147616, “DNA binding of a short lexitropsin” (Bioorg Med Chem Lett, 2004)

System: Nucleic Acid
Test: Compound was evaluated for its binding activity to the DNA AT-rich sites
Assay type: nucleic-acid assay

Binding activity | Structure (SMILES)
3 µM | CN(C)CCCNC(=O)c1cc(NC(=O)c2cc(NC(=O)c3cc(NC=O)cn3C)cn2C)cn1C
0.3 µM | CC(C)n1cc(NC(=O)c2cc(NC=O)cn2C)cc1C(=O)Nc1cc(C(=O)NCCCN(C)C)n(C)c1
